Data on seven compounds can be found in PubChem BioAssay AID272 (DTP/NCI, 2004).

The subject of this assay is Lewis lung carcinoma i.m., BDF1 mice, T/C %. Put plainly: NCI In Vivo Anticancer Drug Screen. Data for tumor model Lewis Lung Carcinoma (intramuscular) in B6D2F1 (BDF1) mice. The gist of the method:
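Mice carrying transplantable tumours received test compound. Survival or tumour size was recorded and expressed as the treated-group value (T) divided by the vehicle-treated control-group value (C).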

Structures are written as SMILES. Values joined by “and” are separate entries in the source; they are usually repeats but may differ in a detail not shown here. Identical values can stand only once. Inconclusive results are not listed.

Consider `CN(C)/N=N/c1nc[nH]c1C(N)=O`, for which the T/C was 63 % of control (endpoint: mean tumor weight, dose: 50.0 mg/kg/injection, schedule: Q01DX011 (ip), vehicle: steriod suspending solution, higher = larger tumour); 62 % of control (endpoint: mean tumor weight, dose: 100.0 mg/kg/injection, schedule: Q01DX011 (ip), vehicle: steriod suspending solution, higher = larger tumour); 44 % of control (endpoint: mean tumor weight, dose: 200.0 mg/kg/injection, schedule: Q01DX011 (ip), vehicle: steriod suspending solution, higher = larger tumour); 112 % of control and 115 % of control (endpoint: median survival time, dose: 23.0 mg/kg/injection, schedule: Q01DX011 (ip), vehicle: Klucel (hydroxypropylcellulose) (HPC), higher = longer survival); 101 % of control (endpoint: median survival time, dose: 25.0 mg/kg/injection, schedule: Q01DX009 (ip), vehicle: Klucel (hydroxypropylcellulose) (HPC), higher = longer survival); 102 % of control and 104 % of control (endpoint: median survival time, dose: 39.0 mg/kg/injection, schedule: Q01DX010 (ip), vehicle: Klucel (hydroxypropylcellulose) (HPC), higher = longer survival). The T/C runs as follows: (endpoint: median survival time, dose: 39.0 mg/kg/injection, schedule: Q01DX011 (ip), vehicle: Klucel (hydroxypropylcellulose) (HPC), higher = longer survival) 108 % of control and 116 % of control; (endpoint: median survival time, dose: 50.0 mg/kg/injection, schedule: Q01DX009 (ip), vehicle: Klucel (hydroxypropylcellulose) (HPC), higher = longer survival) 120 % of control; (endpoint: median survival time, dose: 50.0 mg/kg/injection, schedule: Q01DX011 (ip), vehicle: steriod suspending solution, higher = longer survival) 105 % of control; (endpoint: median survival time, dose: 65.0 mg/kg/injection, schedule: Q01DX010 (ip), vehicle: Klucel (hydroxypropylcellulose) (HPC), higher = longer survival) 112 % of control and 117 % of control; (endpoint: median survival time, dose: 65.0 mg/kg/injection, schedule: Q01DX011 (ip), vehicle: Klucel (hydroxypropylcellulose) (HPC), higher = longer survival) 88 % of control and 93 % of control; (endpoint: median survival time, dose: 100.0 mg/kg/injection, schedule: Q01DX009 (ip), vehicle: Klucel (hydroxypropylcellulose) (HPC), higher = longer survival) 123 % of control. The T/C reads like this: (endpoint: median survival time, dose: 100.0 mg/kg/injection, schedule: Q01DX011 (ip), vehicle: steriod suspending solution, higher = longer survival) 97 % of control; (endpoint: median survival time, dose: 108.0 mg/kg/injection, schedule: Q01DX010 (ip), vehicle: Klucel (hydroxypropylcellulose) (HPC), higher = longer survival) 88 % of control and 93 % of control; (endpoint: median survival time, dose: 108.0 mg/kg/injection, schedule: Q01DX011 (ip), vehicle: Klucel (hydroxypropylcellulose) (HPC), higher = longer survival) 75 % of control; (endpoint: median survival time, dose: 180.0 mg/kg/injection, schedule: Q01DX010 (ip), vehicle: Klucel (hydroxypropylcellulose) (HPC), higher = longer survival) 79 % of control; (endpoint: median survival time, dose: 180.0 mg/kg/injection, schedule: Q01DX011 (ip), vehicle: Klucel (hydroxypropylcellulose) (HPC), higher = longer survival) 63 % of control; (endpoint: median survival time, dose: 200.0 mg/kg/injection, schedule: Q01DX011 (ip), vehicle: steriod suspending solution, higher = longer survival) 97 % of control. The T/C by setting is: (endpoint: median survival time, dose: 300.0 mg/kg/injection, schedule: Q01DX010 (ip), vehicle: Klucel (hydroxypropylcellulose) (HPC), higher = longer survival) 58 % of control; (endpoint: median survival time, dose: 300.0 mg/kg/injection, schedule: Q01DX011 (ip), vehicle: Klucel (hydroxypropylcellulose) (HPC), higher = longer survival) 55 % of control; (endpoint: median survival time, dose: 500.0 mg/kg/injection, schedule: Q01DX010 (ip), vehicle: Klucel (hydroxypropylcellulose) (HPC), higher = longer survival) 57 % of control; (endpoint: median survival time, dose: 500.0 mg/kg/injection, schedule: Q01DX011 (ip), vehicle: Klucel (hydroxypropylcellulose) (HPC), higher = longer survival) 51 % of control.
As for `O=[As]O`, the T/C is, setting by setting: (endpoint: mean tumor weight, dose: 2.0 mg/kg/injection, schedule: Q01DX011 (ip), vehicle: saline, higher = larger tumour) 64 % of control; (endpoint: median survival time, dose: 2.0 mg/kg/injection, schedule: Q01DX011 (ip), vehicle: saline, higher = longer survival) 110 % of control.
Turning to `OCN(CO)c1nc(N(CO)CO)nc(N(CO)CO)n1`, the T/C reads like this: (endpoint: mean tumor weight (est.), dose: 25.0 mg/kg/injection, schedule: Q01DX011 (ip), vehicle: saline with Tween-80, higher = larger tumour) 112 % of control; (endpoint: mean tumor weight (est.), dose: 50.0 mg/kg/injection, schedule: Q01DX011 (ip), vehicle: saline with Tween-80, higher = larger tumour) 85 % of control; (endpoint: mean tumor weight (est.), dose: 100.0 mg/kg/injection, schedule: Q01DX011 (ip), vehicle: saline with Tween-80, higher = larger tumour) 116 % of control; (endpoint: mean tumor weight (est.), dose: 200.0 mg/kg/injection, schedule: Q01DX011 (ip), vehicle: saline with Tween-80, higher = larger tumour) 120 % of control; (endpoint: mean tumor weight (est.), dose: 400.0 mg/kg/injection, schedule: Q01DX011 (ip), vehicle: saline with Tween-80, higher = larger tumour) 73 % of control.
Regarding `Cc1nc2ccccc2nc1CBr`, the T/C is 64 % of control (endpoint: mean tumor weight (est.), dose: 3.2 mg/kg/injection, schedule: Q01DX011 (ip), vehicle: saline with Tween-80, higher = larger tumour); 80 % of control (endpoint: mean tumor weight (est.), dose: 6.3 mg/kg/injection, schedule: Q01DX011 (ip), vehicle: saline with Tween-80, higher = larger tumour); 56 % of control (endpoint: mean tumor weight (est.), dose: 12.5 mg/kg/injection, schedule: Q01DX011 (ip), vehicle: saline with Tween-80, higher = larger tumour); 96 % of control (endpoint: median survival time, dose: 3.2 mg/kg/injection, schedule: Q01DX011 (ip), vehicle: saline with Tween-80, higher = longer survival); 101 % of control (endpoint: median survival time, dose: 6.3 mg/kg/injection, schedule: Q01DX011 (ip), vehicle: saline with Tween-80, higher = longer survival); 88 % of control (endpoint: median survival time, dose: 12.5 mg/kg/injection, schedule: Q01DX011 (ip), vehicle: saline with Tween-80, higher = longer survival).
With `CC[C@]1(O)C[C@H]2CN(CCc3c([nH]c4ccccc34)[C@@](C(=O)OC)(c3cc4c(cc3OC)N(C=O)[C@H]3[C@@](O)(C(=O)OC)[C@H](OC(C)=O)[C@]5(CC)C=CCN6CC[C@]43[C@@H]65)C2)C1`, the T/C runs as follows: (endpoint: mean tumor weight (est.), dose: 0.05 mg/kg/injection, schedule: Q01DX009 (ip), vehicle: water, higher = larger tumour) 57 % of control; (endpoint: mean tumor weight (est.), dose: 0.08 mg/kg/injection, schedule: Q01DX009 (ip), vehicle: water, higher = larger tumour) 99 % of control; (endpoint: mean tumor weight (est.), dose: 0.14 mg/kg/injection, schedule: Q01DX009 (ip), vehicle: water, higher = larger tumour) 69 % of control; (endpoint: mean tumor weight (est.), dose: 0.23 mg/kg/injection, schedule: Q01DX009 (ip), vehicle: water, higher = larger tumour) 55 % of control; (endpoint: mean tumor weight, dose: 0.12 mg/kg/injection, schedule: Q01DX011 (ip), vehicle: water, higher = larger tumour) 116 % of control; (endpoint: mean tumor weight, dose: 0.14 mg/kg/injection, schedule: Q01DX009 (ip), vehicle: water, higher = larger tumour) 46 % of control. Besides, the T/C is 49 % of control (endpoint: mean tumor weight, dose: 0.23 mg/kg/injection, schedule: Q01DX009 (ip), vehicle: water, higher = larger tumour); 105 % of control (endpoint: mean tumor weight, dose: 0.25 mg/kg/injection, schedule: Q01DX011 (ip), vehicle: water, higher = larger tumour); 107 % of control (endpoint: median survival time, dose: 0.05 mg/kg/injection, schedule: Q01DX004 (ip), vehicle: water, higher = longer survival); 92 % of control (endpoint: median survival time, dose: 0.05 mg/kg/injection, schedule: Q09DX009 (ip), vehicle: water, higher = longer survival); 102 % of control and 104 % of control (endpoint: median survival time, dose: 0.06 mg/kg/injection, schedule: Q01DX011 (ip), vehicle: water, higher = longer survival); 110 % of control (endpoint: median survival time, dose: 0.08 mg/kg/injection, schedule: Q01DX004 (ip), vehicle: water, higher = longer survival). In addition, the T/C (endpoint: median survival time, dose: 0.08 mg/kg/injection, schedule: Q09DX009 (ip), vehicle: water, higher = longer survival) is 113 % of control; the T/C (endpoint: median survival time, dose: 0.12 mg/kg/injection, schedule: Q01DX011 (ip), vehicle: water, higher = longer survival) is 92 % of control and 123 % of control; the T/C (endpoint: median survival time, dose: 0.14 mg/kg/injection, schedule: Q01DX004 (ip), vehicle: water, higher = longer survival) was 98 % of control; the T/C (endpoint: median survival time, dose: 0.14 mg/kg/injection, schedule: Q01DX009 (ip), vehicle: none, higher = longer survival) was 158 % of control; the T/C (endpoint: median survival time, dose: 0.23 mg/kg/injection, schedule: Q01DX004 (ip), vehicle: water, higher = longer survival) is 81 % of control; the T/C (endpoint: median survival time, dose: 0.23 mg/kg/injection, schedule: Q01DX009 (ip), vehicle: none, higher = longer survival) is 121 % of control. Moreover, the T/C (endpoint: median survival time, dose: 0.23 mg/kg/injection, schedule: Q01DX009 (ip), vehicle: water, higher = longer survival) is 123 % of control; the T/C (endpoint: median survival time, dose: 0.25 mg/kg/injection, schedule: Q01DX011 (ip), vehicle: water, higher = longer survival) is 105 % of control; the T/C (endpoint: median survival time, dose: 0.39 mg/kg/injection, schedule: Q01DX004 (ip), vehicle: water, higher = longer survival) is 56 % of control; the T/C (endpoint: median survival time, dose: 0.39 mg/kg/injection, schedule: Q01DX009 (ip), vehicle: none, higher = longer survival) is 50 % of control; the T/C (endpoint: median survival time, dose: 0.39 mg/kg/injection, schedule: Q09DX009 (ip), vehicle: water, higher = longer survival) is 58 % of control; the T/C (endpoint: median survival time, dose: 0.65 mg/kg/injection, schedule: Q01DX009 (ip), vehicle: none, higher = longer survival) is 36 % of control.
For the compound `O=NN(CCCl)C(=O)NCc1ccc(-c2ccc(CNC(=O)N(CCCl)N=O)cc2)cc1`, the T/C (endpoint: median survival time, dose: 108.0 mg/kg/injection, schedule: Q07DX003 (ip), vehicle: Klucel (hydroxypropylcellulose) (HPC), higher = longer survival) is 104 % of control and the T/C (endpoint: median survival time, dose: 180.0 mg/kg/injection, schedule: Q07DX003 (ip), vehicle: Klucel (hydroxypropylcellulose) (HPC), higher = longer survival) was 93 % of control.
As to `ClC1(c2ccccc2)c2ccc(Br)cc2-c2cc(Br)ccc21`, the T/C (endpoint: mean tumor weight (est.), dose: 100.0 mg/kg/injection, schedule: Q01DX011 (ip), vehicle: saline, higher = larger tumour) is 53 % of control; the T/C (endpoint: mean tumor weight (est.), dose: 200.0 mg/kg/injection, schedule: Q01DX011 (ip), vehicle: saline, higher = larger tumour) is 40 % of control; the T/C (endpoint: median survival time, dose: 100.0 mg/kg/injection, schedule: Q01DX011 (ip), vehicle: saline, higher = longer survival) is 88 % of control; the T/C (endpoint: median survival time, dose: 200.0 mg/kg/injection, schedule: Q01DX011 (ip), vehicle: saline, higher = longer survival) is 88 % of control.
